What was measured:
[1] = target: ATP-dependent translocase ABCB1 (Homo sapiens, UniProt P08183); assay: Inhibition of P-gp in human A2780 cells; format: cell-based; details: for Activity: human, a2780
[2] = target: ATP-binding cassette sub-family C member 2 (Homo sapiens, UniProt Q92887); assay: Inhibition of human MRP2 expressed in dog MDCK2 cells; format: cell-based, MDCK-II; details: for Activity: human, mdck-ii
[3] = target: Multidrug resistance-associated protein 1 (Homo sapiens, UniProt P33527); assay: Inhibition of human MRP1 in human 2008 cells assessed as increase in calcein-AM accumulation; format: cell-based
Multidrug resistance-associated protein 1, sequence (P33527 whole entry): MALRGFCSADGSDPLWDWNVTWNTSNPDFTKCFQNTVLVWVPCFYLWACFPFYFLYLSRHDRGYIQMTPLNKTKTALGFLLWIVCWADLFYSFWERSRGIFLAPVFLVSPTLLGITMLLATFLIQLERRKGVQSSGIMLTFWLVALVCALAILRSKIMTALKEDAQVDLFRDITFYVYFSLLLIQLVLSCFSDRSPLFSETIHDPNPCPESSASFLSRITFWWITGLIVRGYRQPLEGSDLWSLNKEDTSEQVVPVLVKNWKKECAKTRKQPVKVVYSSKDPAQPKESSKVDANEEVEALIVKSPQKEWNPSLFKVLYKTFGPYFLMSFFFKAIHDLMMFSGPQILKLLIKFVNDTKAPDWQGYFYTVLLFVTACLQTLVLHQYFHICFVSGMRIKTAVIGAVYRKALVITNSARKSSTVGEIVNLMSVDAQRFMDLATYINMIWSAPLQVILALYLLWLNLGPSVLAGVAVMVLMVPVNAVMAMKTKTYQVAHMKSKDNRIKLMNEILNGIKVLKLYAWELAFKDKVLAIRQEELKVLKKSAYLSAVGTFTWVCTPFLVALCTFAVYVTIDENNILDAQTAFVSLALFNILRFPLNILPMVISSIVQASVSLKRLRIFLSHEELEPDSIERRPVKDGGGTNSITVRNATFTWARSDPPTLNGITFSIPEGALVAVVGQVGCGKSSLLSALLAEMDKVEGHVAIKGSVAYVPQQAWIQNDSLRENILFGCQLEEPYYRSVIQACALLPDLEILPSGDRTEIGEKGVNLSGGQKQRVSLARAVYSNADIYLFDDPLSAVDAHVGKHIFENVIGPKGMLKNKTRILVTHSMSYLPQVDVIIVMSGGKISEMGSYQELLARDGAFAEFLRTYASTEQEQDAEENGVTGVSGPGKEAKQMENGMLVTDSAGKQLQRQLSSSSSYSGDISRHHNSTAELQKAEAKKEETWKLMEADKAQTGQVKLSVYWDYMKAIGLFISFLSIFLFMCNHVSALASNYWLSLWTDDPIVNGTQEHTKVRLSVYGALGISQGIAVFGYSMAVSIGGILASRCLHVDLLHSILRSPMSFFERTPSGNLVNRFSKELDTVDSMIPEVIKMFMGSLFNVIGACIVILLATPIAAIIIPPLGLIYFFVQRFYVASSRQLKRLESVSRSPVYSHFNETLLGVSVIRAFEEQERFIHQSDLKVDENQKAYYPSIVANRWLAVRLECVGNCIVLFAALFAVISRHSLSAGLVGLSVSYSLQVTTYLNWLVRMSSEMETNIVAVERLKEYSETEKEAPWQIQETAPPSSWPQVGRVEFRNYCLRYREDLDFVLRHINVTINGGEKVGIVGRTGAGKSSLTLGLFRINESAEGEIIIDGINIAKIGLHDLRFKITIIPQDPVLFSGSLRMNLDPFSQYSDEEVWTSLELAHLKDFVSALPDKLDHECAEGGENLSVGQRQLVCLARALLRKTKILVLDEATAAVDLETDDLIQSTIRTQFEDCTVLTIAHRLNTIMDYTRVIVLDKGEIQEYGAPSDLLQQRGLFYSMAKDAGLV

ATP-dependent translocase ABCB1, sequence (P08183 whole entry): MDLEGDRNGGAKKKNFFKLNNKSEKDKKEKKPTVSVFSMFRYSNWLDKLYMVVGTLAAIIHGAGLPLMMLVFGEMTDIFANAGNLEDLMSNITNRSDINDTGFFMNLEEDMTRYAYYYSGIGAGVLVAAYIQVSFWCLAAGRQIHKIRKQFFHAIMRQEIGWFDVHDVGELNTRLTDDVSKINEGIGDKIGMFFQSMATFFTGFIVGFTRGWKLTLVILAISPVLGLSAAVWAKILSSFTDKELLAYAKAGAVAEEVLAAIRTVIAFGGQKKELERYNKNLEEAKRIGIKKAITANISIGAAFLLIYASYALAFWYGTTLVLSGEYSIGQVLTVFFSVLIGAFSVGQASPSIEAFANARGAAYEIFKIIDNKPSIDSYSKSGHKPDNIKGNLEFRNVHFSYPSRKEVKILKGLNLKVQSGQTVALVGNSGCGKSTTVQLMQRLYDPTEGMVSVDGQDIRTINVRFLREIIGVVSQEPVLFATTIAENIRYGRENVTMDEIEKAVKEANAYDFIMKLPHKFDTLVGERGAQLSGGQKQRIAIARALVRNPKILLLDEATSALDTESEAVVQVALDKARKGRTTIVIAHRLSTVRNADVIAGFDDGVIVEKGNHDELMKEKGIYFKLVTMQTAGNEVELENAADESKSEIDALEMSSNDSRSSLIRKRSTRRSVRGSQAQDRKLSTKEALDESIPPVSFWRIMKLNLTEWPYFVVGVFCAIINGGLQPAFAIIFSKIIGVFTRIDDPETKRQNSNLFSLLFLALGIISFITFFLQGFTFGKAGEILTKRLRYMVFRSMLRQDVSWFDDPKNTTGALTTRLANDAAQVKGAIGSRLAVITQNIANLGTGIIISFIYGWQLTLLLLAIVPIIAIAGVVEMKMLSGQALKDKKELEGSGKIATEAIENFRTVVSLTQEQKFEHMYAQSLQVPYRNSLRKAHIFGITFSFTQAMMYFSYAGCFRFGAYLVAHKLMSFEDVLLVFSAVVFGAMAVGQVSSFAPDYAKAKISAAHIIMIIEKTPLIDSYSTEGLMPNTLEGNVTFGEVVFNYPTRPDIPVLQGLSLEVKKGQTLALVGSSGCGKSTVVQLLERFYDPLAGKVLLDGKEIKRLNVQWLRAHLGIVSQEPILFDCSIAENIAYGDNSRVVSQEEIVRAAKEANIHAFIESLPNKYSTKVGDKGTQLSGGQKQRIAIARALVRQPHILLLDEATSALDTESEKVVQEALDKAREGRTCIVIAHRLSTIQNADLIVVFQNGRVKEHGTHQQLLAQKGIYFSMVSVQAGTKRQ
ATP-binding cassette sub-family C member 2, sequence (Q92887 whole entry): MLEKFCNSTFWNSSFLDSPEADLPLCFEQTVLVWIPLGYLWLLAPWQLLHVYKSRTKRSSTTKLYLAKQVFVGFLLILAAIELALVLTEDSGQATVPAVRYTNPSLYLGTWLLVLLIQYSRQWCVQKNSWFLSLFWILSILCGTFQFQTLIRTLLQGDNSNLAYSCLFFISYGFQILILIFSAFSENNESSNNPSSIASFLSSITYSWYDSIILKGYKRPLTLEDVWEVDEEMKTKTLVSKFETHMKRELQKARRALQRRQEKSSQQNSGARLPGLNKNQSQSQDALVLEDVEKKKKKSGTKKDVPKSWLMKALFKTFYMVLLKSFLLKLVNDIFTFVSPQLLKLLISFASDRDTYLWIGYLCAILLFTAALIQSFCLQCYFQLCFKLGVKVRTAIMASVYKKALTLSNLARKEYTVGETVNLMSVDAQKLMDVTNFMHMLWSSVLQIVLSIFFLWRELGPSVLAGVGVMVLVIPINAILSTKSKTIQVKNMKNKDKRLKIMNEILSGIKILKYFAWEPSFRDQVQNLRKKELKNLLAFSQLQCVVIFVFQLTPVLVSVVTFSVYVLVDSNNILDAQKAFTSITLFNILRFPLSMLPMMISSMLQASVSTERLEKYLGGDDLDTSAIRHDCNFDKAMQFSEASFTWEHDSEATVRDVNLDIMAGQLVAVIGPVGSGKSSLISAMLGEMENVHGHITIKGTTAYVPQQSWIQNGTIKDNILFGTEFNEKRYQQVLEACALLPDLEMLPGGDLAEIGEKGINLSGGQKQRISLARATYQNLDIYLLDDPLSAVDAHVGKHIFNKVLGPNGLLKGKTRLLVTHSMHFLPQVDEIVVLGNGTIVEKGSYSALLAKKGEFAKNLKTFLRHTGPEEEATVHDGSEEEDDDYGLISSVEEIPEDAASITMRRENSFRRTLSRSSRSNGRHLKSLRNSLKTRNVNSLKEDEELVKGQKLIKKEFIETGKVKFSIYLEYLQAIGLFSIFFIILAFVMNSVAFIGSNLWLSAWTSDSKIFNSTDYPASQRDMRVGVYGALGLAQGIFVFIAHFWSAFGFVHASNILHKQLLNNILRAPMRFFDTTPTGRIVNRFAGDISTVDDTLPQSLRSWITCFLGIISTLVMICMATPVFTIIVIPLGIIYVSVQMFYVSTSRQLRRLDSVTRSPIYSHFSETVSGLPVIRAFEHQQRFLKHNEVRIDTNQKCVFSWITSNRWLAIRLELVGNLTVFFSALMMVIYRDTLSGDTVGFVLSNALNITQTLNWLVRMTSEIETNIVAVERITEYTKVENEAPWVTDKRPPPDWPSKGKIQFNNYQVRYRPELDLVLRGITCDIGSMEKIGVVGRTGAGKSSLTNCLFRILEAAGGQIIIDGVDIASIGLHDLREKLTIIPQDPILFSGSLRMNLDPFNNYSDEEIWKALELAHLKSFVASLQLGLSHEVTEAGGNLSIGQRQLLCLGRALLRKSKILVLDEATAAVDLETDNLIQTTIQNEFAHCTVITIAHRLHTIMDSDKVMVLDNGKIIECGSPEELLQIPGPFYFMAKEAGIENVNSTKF

SMILES | IC50 [1] | Activity [2] | Activity [1] | IC50 [2] | Activity [3]
CCOC(=O)c1c(NC(=S)Nc2ccc(C(=O)O)cc2)sc2c1CCCC2 | – | – | Not Active | > 200 µM | –
O=C(O)c1ccc(Nc2nc3sc4c(c3c(=O)s2)CCCC4)cc1 | – | – | Not Active | 21.5 µM | Active
CN(C)C(=O)CCSC(SCCC(=O)[O-])c1cccc(/C=C/c2ccc3ccc(Cl)cc3n2)c1.[Na+] (stereo not drawn) | – | – | Not Active | 20.7 µM | –

Results, then the compound that gave them:

IC50 [1] | Activity [2] | Activity [1] | IC50 [2] | Activity [3] | SMILES
> 200 µM | Not Active | – | – | – | Nc1nc2sc3c(c2c(=O)s1)CCCC3
– | Not Active | Not Active | – | – | O=C(Nc1nc2sc3c(c2c(=O)s1)CCCC3)c1ccccc1
– | – | Not Active | 235 µM | – | COc1ccc2c(c1)c(CC(=O)O)c(C)n2C(=O)c1ccc(Cl)cc1 [INDOMETHACIN]

Source: ChEMBL document CHEMBL1140042, “A 4-aminobenzoic acid derivative as novel lead for selective inhibitors of multidrug resistance-associated proteins” (Bioorg Med Chem Lett, 2008)
